Data: patent US20050019746A1, “Apoptosis-related kinase/GPCRs” (EiRx Therapeutics Limited, priority 2003, published 2005)
Entries after “also recorded” stand apart in the source; their conditions may differ.

Columns and labels:
Format in all cases: cell-based, human
[1] = system: DU145, PC3, HCT116 cells; test: Annexin V apoptosis assay (Guava Nexin); settings: DU145, HCT116 or PC3, siRNA 50 nM, relative to mock transfected, FIG. 34
From the text: Apoptosis or programmed cell death is an important and active regulatory pathway of cell growth and proliferation. Cells respond to specific induction signals by initiating intracellular processes that result in characteristic physiological changes. Among these are externalisation of phosphotidylserine (PS) to the cell surface, cleavage and degradation of specific cellular proteins, compaction and fragmentation of nuclear chromatin and loss of membrane integrity (in late stages). Annexin V is a calcium-dependant phospholipid binding protein with a high affinity for phosphotidyl serine (PS), a membrane component normally localised to the internal face of the cell membrane. Early in the apoptotic pathway molecules of PS are translocated to the outer surface of the cell membrane where Annexin V can readily bind to them.
Annexin V assays are performed using the Guava Nexin Assay, which utilises Annexin V-PE to detect PS on the external membrane of apoptotic cells. The cell impermeant dye 7-AAD is included in the assay as an indicator of membrane structural integrity as it is excluded from live and early apoptotic cells but permeates late stage apoptotic and dead cells. Assays are performed using a Guava Technologies Personal Cytometer and Guava Nexin Kit (catalogue no. 4500-0010, Guava Technologies Inc) using a modification of the manufacturer's protocol, where cells are transfected with siRNA in 24-well plates and assays performed at 24, 48 and 72 hours post-transfection.
Cells (DU145, PC3 & HCT116) are plated at a density of 20000 cells/well in 500 μl medium in 24-well plates and incubated overnight at 37° C. in a humidified atmosphere containing 5% CO2. […]
The 500 μl of media is decanted from the cells and combined with 150 μl of PBS used to wash them. […] Then, 450 μl 1× Nexin Buffer is added to the cells and the cell population analysed using the Guava Personal Cytometer following the manufacturer's instructions. […] The total number of early and late apoptotic cells is measured and the relative number of apoptotic cells calculated. […]

[2] = system: MCF7 cells; test: Anchorage Independence/Soft Agar Assay, MCF7; set-up: PERCENTAGE SURVIVAL RELATIVE TO MS, MCF7, n = 2: tested at 2 µg; settings: soft agar; for PERCENTAGE SURVIVAL RELATIVE TO MS, MCF7, n = 1: experiment n = 1; for PERCENTAGE SURVIVAL RELATIVE TO MS, MCF7, n = 2: experiment n = 2
Procedure, shortened: (§1)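 Cells were transfected for 4 h with 2 μg siRNA against target genes, then seeded at 5×10^4 cells/well in 0.05% agar/medium and grown 12/14 days at 37 °C, 5% CO2. Crystal violet-stained colonies were counted at 4× and morphology assessed; survival expressed relative to missense siRNA control.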

[3] = system: A549 cells; test: Anchorage Independence/Soft Agar Assay, A549; set-up: PERCENTAGE SURVIVAL RELATIVE TO MS, A549, n = 2: tested at 2 µg; settings: soft agar; for PERCENTAGE SURVIVAL RELATIVE TO MS, A549, n = 1: experiment n = 1; for PERCENTAGE SURVIVAL RELATIVE TO MS, A549, n = 2: experiment n = 2
Procedure, shortened: as §1

[4] = system: HCT15 cells; test: Anchorage Independence/Soft Agar Assay, HCT15; set-up: PERCENTAGE SURVIVAL RELATIVE TO MS, HCT15, n = 2: tested at 2 µg; PERCENTAGE SURVIVAL RELATIVE TO MS, HCT15, n = 1: tested at 2 µg siRNA; settings: soft agar; for PERCENTAGE SURVIVAL RELATIVE TO MS, HCT15, n = 1: experiment n = 1; for PERCENTAGE SURVIVAL RELATIVE TO MS, HCT15, n = 2: experiment n = 2
Procedure, shortened: as §1

[5] = system: cancer cell lines; test: Anchorage Independence/Soft Agar Assay, summary over the cell lines; settings: 14-day anchorage independent assay, over the cell lines examined
Protocol: (§2) The Anchorage Independence/Soft Agar Assay allows assessment of the influence of modulation of gene expression on clonal tumouroid formation by observing and quantifying tumouroid morphology and colony number over an extended period of logarithmic growth thereby ascertaining any cell death is induced.
(§3) Cells are seeded into a 6-well plate and allowed to adhere overnight at 37° C. in a humidified atmosphere containing 5% CO2 in air. Cells are next transfected with siRNA Oligomers, at a concentration of 2 μg, against the genes of interest. Transfections continued for 4 hrs after which the transfection solution is removed and cells are refed with fresh medium and allowed incubate overnight. Transfected cells are next harvested for seeding into soft agar assay as described below. Cells are seeded at 5×10^4 cells per well of a 6 well plate and incubated over a 12/14-Day period whilst proliferating in a 0.05% Agar/Medium cell suspension at 37° C. in a humidified atmosphere containing 5% CO2 in air. Colonies formed are subsequently stained with Crystal Violet, their morphology is assessed and colonies formed are enumerated at a 4× magnification.
(§4) The cytotoxic effect of each gene is determined by a reduction in colony number compared to our MS control, but any influence on the morphology of the colony is also noted.
As an internal reference, the known survival gene ‘Survivin’ was also targeted by siRNA.

[6] = system: U251 cells; test: Anchorage Independence/Soft Agar Assay, U251; settings: soft agar, experiment n = 1
Protocol: as §2
as §3, with “Cells are seeded at 5×10^4 cells per well of a 6 well plate and incubated over a 12/14-Day period whilst proliferating in a 0.05% Agar/Medium cell suspension at 37° C. in a humidified atmosphere containing 5% CO2 in air.” left out
as §4
Examples of genes with a cytotoxic effect on knockdown as detected by the soft agar assay are outlined in Table 14. […]

Substance	apoptosis by Annexin V staining [1]	PERCENTAGE SURVIVAL RELATIVE TO MS, MCF7, n = 1 [2] [%]	PERCENTAGE SURVIVAL RELATIVE TO MS, MCF7, n = 2 [2] [%]	PERCENTAGE SURVIVAL RELATIVE TO MS, A549, n = 1 [3] [%]	PERCENTAGE SURVIVAL RELATIVE TO MS, A549, n = 2 [3] [%]	PERCENTAGE SURVIVAL RELATIVE TO MS, HCT15, n = 1 [4] [%]	PERCENTAGE SURVIVAL RELATIVE TO MS, HCT15, n = 2 [4] [%]	cell death / apoptosis in the soft agar assay [5]	PERCENTAGE SURVIVAL RELATIVE TO MS, U251, n = 1 [6] [%]
siRNA EKI: siRNA duplex, sense GCACUGGAUCCAAAGCAUGtt, antisense CAUGCUUUGGAUCCAGUGCtt; same in Tables 9 and 11 (sense GCACUGGAUCCAAAGCAUGTT; antisense CAUGCUUUGGAUCCAGUGCTT; chemistry not given here)	undergo apoptosis	–	–	–	–	–	–	–	–
siRNA MKNK: sense UACAUGGCCCCUGAGGUAGtt, antisense CUACCUCAGGGGCCAUGUAtt (sense UACAUGGCCCCUGAGGUAGTT; antisense CUACCUCAGGGGCCAUGUATT; chemistry not given here)	–	25.9	4	85	21.6	66.3	90.9	induced cell death consistently in 2 of the cell lines examined	–
siRNA MPSK1: sense GGGUUAUGCCCACAGAGACtt, antisense GUCUCUGUGGGCAUAACCCtt (sense GGGUUAUGCCCACAGAGACTT; antisense GUCUCUGUGGGCAUAACCCTT; chemistry not given here)	–	35.8	30.3	59.4	19.5	42.3	62.2	significant cell death in all cell lines	18
siRNA NTKL: siRNA duplex, sense UGUGGAGCUGAUGAAGCACtt, antisense GUGCUUCAUCAGCUCCACAtt; same in Tables 9 and 11 (sense UGUGGAGCUGAUGAAGCACTT; antisense GUGCUUCAUCAGCUCCACATT; chemistry not given here)	undergo apoptosis	–	–	–	–	–	–	–	–
siRNA PSKH1: sense GAACCUGCACCGCUCCAUAtt, antisense UAUGGAGCGGUGCAGGUUCtt (sense GAACCUGCACCGCUCCAUATT; antisense UAUGGAGCGGUGCAGGUUCTT; chemistry not given here)	–	82.6	11.9	65.8	32.5	37.2	41	modulates apoptosis; also recorded: significant cell death in all cell lines	–
siRNA ROCK: siRNA duplex, sense UACAUGCCUGGUGGAGAUCtt, antisense GAUCUCCACCAGGCAUGUAtt; same in Tables 9 and 11 (sense UACAUGCCUGGUGGAGAUCTT; antisense GAUCUCCACCAGGCAUGUATT; chemistry not given here)	undergo apoptosis	–	–	–	–	–	–	–	–
siRNA Survivin: positive control siRNA, sense GAACUGGCCCUUCUUGGAGtt, antisense CUCCAAGAAGGGCCAGUUCtt (sense GAACUGGCCCUUCUUGGAGTT; antisense CUCCAAGAAGGGCCAGUUCTT; chemistry not given here) [reference compound]	–	80.3	50.3	53	17.7	71.5	48.6	induced cell death in all cell lines	–
